# Biological target: soluble human BACE1 catalytic domain (Homo sapiens (Human), UniProt P56817)
# Experiment: BACE1 HTRF FRET Assay
# Details: read-out: BACE1 Ki; Ki calculated from IC50 using the Cheng-Prusoff equation
# Chain of soluble human BACE1 catalytic domain (P56817 75-416): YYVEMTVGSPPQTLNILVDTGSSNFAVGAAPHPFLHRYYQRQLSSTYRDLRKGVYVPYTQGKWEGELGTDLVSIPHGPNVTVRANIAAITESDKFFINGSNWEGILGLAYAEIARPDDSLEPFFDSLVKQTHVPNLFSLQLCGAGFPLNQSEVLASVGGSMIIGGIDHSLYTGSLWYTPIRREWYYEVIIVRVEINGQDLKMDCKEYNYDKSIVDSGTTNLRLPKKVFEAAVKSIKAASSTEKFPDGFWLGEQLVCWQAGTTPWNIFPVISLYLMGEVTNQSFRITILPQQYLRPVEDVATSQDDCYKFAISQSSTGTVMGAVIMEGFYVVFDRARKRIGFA
row,Structure (SMILES),Ki [nM]
1,CC1(C)C(=N)N[C@](C)(c2nc(NC(=O)c3ccncn3)ccc2F)CS1(=O)=O [Example 9ch],101
2,CC[C@@]1(C)C(=N)N[C@](C)(c2cc(NC(=O)c3ccc(F)cn3)ccc2F)CS1(=O)=O [Example 9cl-a],5.9
3,CC[C@]1(C)C(=N)N[C@](C)(c2cc(NC(=O)c3ccc(F)cn3)ccc2F)CS1(=O)=O [Example 9cl-b],22.5
4,CC[C@@]1(C)C(=N)N[C@](C)(c2cc(NC(=O)c3ccc(OC)cn3)ccc2F)CS1(=O)=O [Example 9cm-a],5.6
5,C[C@@]1(c2cc(NC(=O)c3ccc(F)cn3)ccc2F)CS(=O)(=O)[C@@](C)(c2cccc(C(F)(F)F)c2)C(=N)N1 [Example 9co-a],5.8
6,COCC(=O)Nc1ccc(F)c([C@]2(C)CS(=O)(=O)[C@@](C)(c3cccc(C(F)(F)F)c3)C(=N)N2)c1 [Example 9cp-a],18
7,COc1cnc(C(=O)Nc2ccc(F)c([C@]3(C)CS(=O)(=O)[C@@](C)(C4CC4)C(=N)N3)c2)cn1 [Example 9cq-a],13.3
8,C[C@]1(CC2CCOCC2)C(=N)N[C@](C)(c2cc(NC(=O)c3ccc(F)cn3)ccc2F)CS1(=O)=O [Example 9cr-a],2.1
9,C[C@]1(CC2CCOCC2)C(=N)N[C@](C)(c2cc(NC(=O)c3ccc(Cl)cn3)ccc2F)CS1(=O)=O [Example 9cs-a],1.6
10,COc1cnc(C(=O)Nc2ccc(F)c([C@]3(C)CS(=O)(=O)[C@@](C)(CC4CCOCC4)C(=N)N3)c2)cn1 [Example 9ct-a],3.9
11,C[C@@]1(c2cc(NC(=O)c3ccc(F)cn3)ccc2F)CS(=O)(=O)[C@@](C)(c2ccccn2)C(=N)N1 [Example 9cv-a],7.8
12,C[C@@]1(c2cc(NC(=O)c3ccc(Cl)cn3)ccc2F)CS(=O)(=O)[C@@](C)(c2ccccn2)C(=N)N1 [Example 9cw-a],4.4
13,COc1ccc(C(=O)Nc2ccc(F)c([C@]3(C)CS(=O)(=O)[C@@](C)(c4ccccn4)C(=N)N3)c2)nc1 [Example 9cx-a],7.1
14,COc1cnc(C(=O)Nc2ccc(F)c([C@]3(C)CS(=O)(=O)C(C)(C)C(=N)N3)c2)c(F)c1 [Example 9d],5.4
15,C[C@@]1(c2cc(NC(=O)c3ccc(F)cn3)ccc2F)CS(=O)(=O)[C@@](C)(c2cccc(F)c2)C(=N)N1 [Example 9da-a],3.6
16,COc1ccc(C(=O)Nc2ccc(F)c([C@]3(C)CS(=O)(=O)[C@](C)(c4cccc(F)c4)C(=N)N3)c2)nc1 [Example 9dc-b],216
17,COc1cnc(C(=O)Nc2ccc(F)c([C@]3(C)CS(=O)(=O)[C@@](C)(c4cccc(F)c4)C(=N)N3)c2)cn1 [Example 9dd-a],3.9
18,C[C@@]1(c2cc(NC(=O)c3ccc(C(F)(F)F)cn3)ccc2F)CS(=O)(=O)[C@@](C)(c2cccc(F)c2)C(=N)N1 [Example 9de-a],3.5
19,C[C@@]1(c2cc(NC(=O)c3ccc(F)cn3)ccc2F)CS(=O)(=O)[C@@](C)(c2ccc(F)cc2)C(=N)N1 [Example 9df-a],2.3
20,COc1cnc(C(=O)Nc2ccc(F)c([C@]3(C)CS(=O)(=O)[C@@](C)(c4ccc(F)cc4)C(=N)N3)c2)cn1 [Example 9dg-a],4.5
21,C[C@]1(CC2CC2)C(=N)N[C@](C)(c2cc(NC(=O)c3ccc(F)cn3)ccc2F)CS1(=O)=O [Example 9dh-a],7.5
22,C[C@@]1(c2cc(NC(=O)c3ccc(F)cn3)ccc2F)CS(=O)(=O)[C@](C)(CC2CC2)C(=N)N1 [Example 9dh-b],47.4
23,C[C@]1(CC2CC2)C(=N)N[C@](C)(c2cc(NC(=O)c3ccc(Cl)cn3)ccc2F)CS1(=O)=O [Example 9di-a],4.3
24,C[C@@]1(c2cc(NC(=O)c3ccc(Cl)cn3)ccc2F)CS(=O)(=O)[C@](C)(CC2CC2)C(=N)N1 [Example 9di-b],15.6

row,Structure (SMILES),Ki [nM]
1,COc1ccc(C(=O)Nc2ccc(F)c([C@]3(C)CS(=O)(=O)[C@@](C)(CC4CC4)C(=N)N3)c2)nc1 [Example 9dj-a],4.3
2,COc1ccc(C(=O)Nc2ccc(F)c([C@]3(C)CS(=O)(=O)[C@](C)(CC4CC4)C(=N)N3)c2)nc1 [Example 9dj-b],26.9
3,COc1cnc(C(=O)Nc2ccc(F)c([C@]3(C)CS(=O)(=O)[C@@](C)(CC4CC4)C(=N)N3)c2)cn1 [Example 9dk-a],7
4,C[C@]1(CC2CC2)C(=N)N[C@](C)(c2cc(NC(=O)c3ccc(C(F)(F)F)cn3)ccc2F)CS1(=O)=O [Example 9dl-a],4.4
5,C=CC[C@@]1(C)C(=N)N[C@](C)(c2cc(NC(=O)c3cnc(OC)cn3)ccc2F)CS1(=O)=O [Example 9dm-a],4
6,C[C@@]1(c2cc(NC(=O)c3ccc(F)cn3)ccc2F)CS(=O)(=O)[C@@](C)(c2ccccc2F)C(=N)N1 [Example 9dn-a],21.4
7,C[C@]1(CC(F)(F)F)C(=N)N[C@](C)(c2cc(NC(=O)c3ccc(F)cn3)ccc2F)CS1(=O)=O [Example 9dp-a],6.2
8,COc1ccc(C(=O)Nc2ccc(F)c([C@]3(C)CS(=O)(=O)[C@@](C)(CC(F)(F)F)C(=N)N3)c2)nc1 [Example 9dq-a],8.5
9,C[C@@]1(c2cc(NC(=O)c3ccc(F)cn3)ccc2F)CS(=O)(=O)[C@@](C)(C2CCOCC2)C(=N)N1 [Example 9ds-a],3.5
10,COc1ccc(C(=O)Nc2ccc(F)c([C@]3(C)CS(=O)(=O)[C@@](C)(C4CCOCC4)C(=N)N3)c2)nc1 [Example 9dt-a],3
11,COc1cnc(C(=O)Nc2ccc(F)c([C@]3(C)CS(=O)(=O)[C@@](C)(C4CCOCC4)C(=N)N3)c2)cn1 [Example 9du-a],3.4
12,C[C@@]1(c2cc(NC(=O)c3ccc(F)cn3)ccc2F)CS(=O)(=O)[C@@](C)(C2CCC2)C(=N)N1 [Example 9dv-a],7
13,COc1cnc(C(=O)Nc2ccc(F)c([C@]3(C)CS(=O)(=O)[C@@](C)(C4CCC4)C(=N)N3)c2)cn1 [Example 9dy-a],7.5
14,C[C@@]1(c2cc(NC(=O)c3ccc(C(F)(F)F)cn3)ccc2F)CS(=O)(=O)[C@@](C)(C2CCC2)C(=N)N1 [Example 9dz-a],3.4
15,CC1(C)C(=N)N[C@](C)(c2cc(NC(=O)c3cnc(C(F)(F)F)cn3)ccc2F)CS1(=O)=O [Example 9e],0.7
16,CC(C)[C@@]1(C)C(=N)N[C@](C)(c2cc(NC(=O)c3ccc(F)cn3)ccc2F)CS1(=O)=O [Example 9ea-a],31.6
17,COc1ccc(C(=O)Nc2ccc(F)c([C@]3(C)CS(=O)(=O)[C@@](C)(C(C)C)C(=N)N3)c2)nc1 [Example 9eb-a],16.5
18,C[C@@]1(c2cc(NC(=O)c3ccc(F)cn3)ccc2F)CS(=O)(=O)[C@@](C)(c2cc(C(F)(F)F)ccn2)C(=N)N1 [Example 9ed-a],1.6
19,C[C@@]1(c2cc(NC(=O)c3ccc(F)cn3)ccc2F)CS(=O)(=O)[C@@](C)(c2cc(C(F)(F)F)ccn2)C(=N)N1 [Example 9ed-b],15.1
20,CC1(C)C(=N)N[C@](C)(c2cc(NC(=O)c3ccc(F)cc3F)ccc2F)CS1(=O)=O [Example 9f],11
21,Cc1nc(C(=O)Nc2ccc(F)c([C@]3(C)CS(=O)(=O)C(C)(C)C(=N)N3)c2)no1 [Example 9g],1.9
22,Cc1noc(C(=O)Nc2ccc(F)c([C@]3(C)CS(=O)(=O)C(C)(C)C(=N)N3)c2)n1 [Example 9h],2.7
23,CC1(C)C(=N)N[C@](C)(c2cc(NC(=O)c3ccn(C(F)F)n3)ccc2F)CS1(=O)=O [Example 9j],0.6
24,CC1(C)C(=N)N[C@](C)(c2cc(NC(=O)c3ccc(F)cn3)cc(F)c2F)CS1(=O)=O [Example 9k],9.7
